The term MBC denotes the lowest tested concentration that kills the bacteria rather than only halting them. Low values mean more potent killing, high ones less potent killing. What is called MIC is the lowest concentration found to suppress growth. The low end stands for a more susceptible organism, the high end for a less susceptible organism.

Here are results for six molecules from article PMC4795541, “A Rapid and Quantitative Flow Cytometry Method for the Analysis of Membrane Disruptive Antimicrobial Activity” (PLoS ONE, 2016).

The subject of assay [1] is S. mutans Ingbritt. Description: MDC, flow cytometry Syto9/PI membrane disruption assay. As to conditions: 90 min peptide/bacteria incubation, average of 3 assays ± SD. Type of assay: cell-based, Streptococcus mutans. An excerpt: The bacterial strains; Fusobacterium nucleatum ATCC 25586, Streptococcus mutans Ingbritt, Staphylococcus aureus (MSSA) ATCC 29213; Staphylococcus aureus (MRSA) ATCC 43300; Enterococcus faecalis ATCC 29212; Enterobacter aerogenes ATCC 13048; Pseudomonas aeruginosa strain PAO1-LAC, ATCC 47085; Klebsiella pneumoniae ATCC 13883; Acinetobacter baumannii strain 2208, ATCC 19606; Escherichia coli ATCC 25922 lyophilised or glycerol stocks were obtained from the culture collection of the Oral Health Cooperative Research Centre, The Melbourne Dental School, University of Melbourne, Australia. These strains were selected for this study as they are widely used in antimicrobial studies and are considered to be important pathogens and major targets for antibiotic resistant studies. Bacteria were grown aerobically and maintained by passage at ambient temperature (E. coli, K. pneumoniae, A. baumannii and S. aureus strains) or at 37°C (P. aeruginosa, E. faecalis and E. aerogenes) on horse blood agar (10% v/v defibrinated horse blood, 4.4% w/v Oxoid Blood Agar Base No. 2). S. mutans and F. nucleatum were grown anaerobically (MK3 anaerobic workstation, Don Whitley Scientific Limited, England) and maintained by passage at 37°C on Todd Hewitt agar (3.6% w/v Oxoid Todd-Hewitt Broth, 1.5% w/v sucrose, 1.5% w/v BactoTM Agar, 0.8% w/v Oxoid Yeast Extract) or horse blood agar, respectively. For the antimicrobial peptide assays a 20 mL starter culture was produced by taking single colonies from blood or Todd Hewitt agar plates, respectively, to inoculate either: Luria Broth (LB; 1% w/v BactoTM Tryptone, 1% w/v NaCl, 0.5% w/v Oxoid Yeast Extract, pH 7.5, Thermo Scientific Pty, Ltd, Sydney, Australia) for bacteria; E. coli, K. pneumoniae, P. aeruginosa, A. baumannii, E. faecalis, E. aerogenes and S. aureus which were grown aerobically at 37°C, or Todd Hewitt broth (3.6% w/v Oxoid Todd-Hewitt Broth, 1.5% w/v sucrose, 0.8% w/v Oxoid Yeast 9 Extract) for S. mutans, or Brain Heart Infusion broth (BHI; 3.7% w/v Oxoid BHI, 0.05% w/v L-cysteine) for F. nucleatum which were both grown anaerobically at 37°C. After overnight incubation, 0.5–2.0 mL of the starter culture was used to inoculate the appropriate fresh broth (200 mL) and growth monitored at 650 nm using a spectrophotometer (model 275E; Perkin-Elmer, Sydney, Australia) with culture purity checked by microscopic examination and culture. Bacteria were harvested during late exponential growth phase and viability and bacteria/mL determined using a BacLight viability kit (Invitrogen, Sydney, Australia) and a Quanta SC-MPL flow cytometer (Beckman coulter Pty, Ltd, Sydney, Australia).
Antibacterial assays were undertaken to determinate the minimum inhibitory concentration (MIC), minimum bactericidal concentration (MBC) and minimum membrane disruptive concentration (MDC) of each of the antimicrobial peptides (AMP) and AMP analogues (S1 Table). For each bacterim a stock solution (2.5 × 10^6 cells/mL) in the respective media was made and an aliquot incubated with AMPs within 15 minutes from viable cell count and stock preparation. All AMPs were dissolved in DMSO and a 500 μM stock solution prepared by adding the respective media and serial dilutions (250–0.244 μM) of the AMP in media (100 μL/well) made just prior addition of bacteria. […] After the 90 minute incubation period the antimicrobial activity (MIC, MBC and MDC) was determined as follows;
Background: In flow cytometry, cells or beads pass a laser one at a time.

Assay [2] has as its system K. pneumoniae ATCC 13883. Conditions: K. pneumoniae ATCC 13883; 90 min incubation; average of 3 assays ± SD. In short, it runs like this: (§1)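 Peptides dissolved in DMSO and serially diluted 250–0.244 μM in medium. Inoculum 2.5 × 10^5 cells/well, late-exponential phase. LB aerobic; S. mutans in Todd Hewitt, anaerobic.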
For assay [3], the system named is S. aureus (MSSA) ATCC 29213. As to conditions: S. aureus (MSSA) ATCC 29213; 90 min incubation; average of 3 assays ± SD. In short, it runs like this: as §1
The subject of assay [4] is P. aeruginosa strain PAO1-LAC, ATCC 47085. As to conditions: P. aeruginosa PAO1-LAC, ATCC 47085; 90 min incubation; average of 3 assays ± SD. The gist of the method: as §1
The test system of assay [5] is E. aerogenes ATCC 13048. As to conditions: E. aerogenes ATCC 13048; 90 min incubation; average of 3 assays ± SD. The gist of the method: as §1
Assay [6] concerns E. coli ATCC 25922. Conditions: E. coli ATCC 25922; 90 min incubation; average of 3 assays ± SD. In short, it runs like this:
as §1

The test system of assay [7] is A. baumannii strain 2208, ATCC 19606. As to conditions: A. baumannii strain 2208, ATCC 19606; 90 min incubation; average of 3 assays ± SD. The gist of the method:
as §1

The subject of assay [8] is S. aureus (MRSA) ATCC 43300. Conditions: S. aureus (MRSA) ATCC 43300; 90 min incubation; average of 3 assays ± SD. In short, it runs like this:
as §1

For assay [9], the system named is E. faecalis ATCC 29212. Conditions: E. faecalis ATCC 29212; 90 min incubation; average of 3 assays ± SD. The gist of the method: as §1
The subject of assay [10] is K. pneumoniae ATCC 13883. Conditions: K. pneumoniae ATCC 13883; 90 min incubation; average of 3 assays ± SD. In short, it runs like this:
(§2)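 Peptides dissolved in DMSO were diluted in the appropriate broth (250–0.244 μM before bacteria were added) and mixed with 2.5 × 10^5 viable cells per well. Plates stood 90 min at 37°C. The anaerobe F. nucleatum grew in cysteine-supplemented BHI, while the aerobic strains grew in LB. Inhibition followed CLSI broth microdilution.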
This is another data set of the same source.

In assay [11] the test system is S. aureus (MSSA) ATCC 29213. Conditions: S. aureus (MSSA) ATCC 29213; 90 min incubation; average of 3 assays ± SD. The gist of the method: (§3)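 Late-exponential bacteria (BacLight/flow cytometry counted) at 2.5 × 10^5 cells/well were incubated 90 min at 37°C with peptide dilution series (250–0.244 μM in media before bacteria were added). F. nucleatum was run anaerobically in BHI with 0.05% L-cysteine, and the other strains aerobically in LB. MIC was then read by CLSI broth microdilution.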
The source holds these as a separate data set.

Assay [12] has as its system P. aeruginosa strain PAO1-LAC, ATCC 47085. Conditions: P. aeruginosa PAO1-LAC, ATCC 47085; 90 min incubation; average of 3 assays ± SD. The gist of the method: as §3
This is another data set of the same source.

Assay [13] concerns E. aerogenes ATCC 13048. Conditions: E. aerogenes ATCC 13048; 90 min incubation; average of 3 assays ± SD. In short, it runs like this: as §2
The source holds these as a separate data set.

For assay [14], the system named is E. coli ATCC 25922. As to conditions: E. coli ATCC 25922; 90 min incubation; average of 3 assays ± SD. In short, it runs like this: as §2
The source holds these as a separate data set.

Assay [15] has as its system A. baumannii strain 2208, ATCC 19606. As to conditions: A. baumannii strain 2208, ATCC 19606; 90 min incubation; average of 3 assays ± SD. In short, it runs like this:
as §3
This is another data set of the same source.

Assay [16] has as its system S. aureus (MRSA) ATCC 43300. As to conditions: S. aureus (MRSA) ATCC 43300; 90 min incubation; average of 3 assays ± SD. The gist of the method: as §3
The source holds these as a separate data set.

In assay [17] the test system is E. faecalis ATCC 29212. As to conditions: E. faecalis ATCC 29212; 90 min incubation; average of 3 assays ± SD. The gist of the method: as §3
The source holds these as a separate data set.

Values after ≈ are worked out from the molar mass of the structure shown. Marks after values point to notes of the source that are not given here. Where a SMILES comes first, the peptide text is derived from it. Where no end group is shown, it is not given here. [ ]: non-standard residue; d: D form. Phe(ol) = N[C@H](CO)Cc1ccccc1; Dab = NCC[C@H](N)C(=O)O; Dap = NC[C@H](N)C(=O)O; Aib = CC(C)(N)C(=O)O A value given as a limit tells only on which side of the number the result lay.

On to `CC[C@H](C)[C@H](NC(=O)CN)C(=O)NCC(=O)N[C@@H](CCN)C(=O)N[C@@H](Cc1ccccc1)C(=O)N[C@@H](CC(C)C)C(=O)N[C@@H](Cc1c[nH]cn1)C(=O)N[C@@H](CO)C(=O)N[C@@H](C)C(=O)N[C@@H](CCN)C(=O)N[C@@H](CCN)C(=O)N[C@@H](Cc1ccccc1)C(=O)NCC(=O)N[C@@H](CCN)C(=O)N[C@@H](C)C(=O)N[C@@H](Cc1ccccc1)C(=O)N[C@H](C(=O)NCC(=O)N[C@@H](CCC(=O)O)C(=O)N[C@H](C(=O)N[C@@H](CCSC)C(=O)N[C@@H](CC(N)=O)C(=O)N[C@@H](CO)C(N)=O)[C@@H](C)CC)C(C)C` [Magainin-Dab] (H-GIG[Dab]FLHSA[Dab][Dab]FG[Dab]AFVGEIMNS-NH2; N-terminus assumed), for which the MDC in [1] was >200^c μM.

Regarding `CC(=O)NC(C)(C)C(=O)N1CCC[C@H]1C(=O)NC(C)(C)C(=O)N[C@@H](C)C(=O)NC(C)(C)C(=O)N[C@@H](C)C(=O)N[C@@H](CCC(N)=O)C(=O)NC(C)(C)C(=O)N[C@H](C(=O)NC(C)(C)C(=O)NCC(=O)N[C@@H](CC(C)C)C(=O)NC(C)(C)C(=O)N1CCC[C@H]1C(=O)N[C@H](C(=O)NC(C)(C)C(=O)NC(C)(C)C(=O)N[C@@H](CCC(=O)O)C(=O)N[C@@H](CCC(N)=O)C(=O)N[C@H](CO)Cc1ccccc1)C(C)C)C(C)C` [Alamethicin] (Ac-[Aib]P[Aib]A[Aib]AQ[Aib]V[Aib]GL[Aib]PV[Aib][Aib]EQ[Phe(ol)]; N-terminus assumed), the minimal bactericidal concentration (MBC) in [2] was over 250 µM; in assay [3], 27.9 ± 6.9 µM (≈ 54.8 µg/mL); in [4] it was over 250 µM; in assay [5], over 250 µM; in assay [6], over 250 µM; in assay [7], over 250 µM. The MBC in [8] came to 59.2 ± 1.7 µM (≈ 116 µg/mL); in [9], 48.1 ± 5.4 µM (≈ 94.5 µg/mL). Moreover, the MIC is over 250 µM in assay [10]; 31.4 ± 7.4 µM (≈ 61.7 µg/mL) in assay [11]; over 250 µM in assay [12]; over 250 µM in assay [13]; over 250 µM in assay [14]; 142.9±19.6^e μM in assay [15]. In addition, the figures for the MIC in [16] and in assay [17] were 50.8 ± 3.5 µM (≈ 99.8 µg/mL) and 30.1±9.6^e μM, respectively. The molecule further displayed an MDC in assay [1] of 41.9 ± 8.3 µM.

Turning to “GIGKFLHSAKKFGKAFVGEIMNS-NH2 [Magainin II]”, the MBC was 142.3 ± 19.5 µM in assay [2]; over 250 µM in assay [3]; 56.3 ± 4.2 µM in assay [4]; over 250 µM in assay [5]; 48.1 ± 12.4 µM in assay [6]; 20.0 ± 1.0 µM in assay [7]. For the same molecule, the minimal bactericidal concentration (MBC) in assay [8] and in assay [9] was over 250 µM throughout. Further, the MIC in assay [10] was 132.2 ± 28.5 µM; in assay [11] it was over 250 µM; in [12] it was 26.1±1.2^e μM; in assay [13], over 250 µM; in assay [14], 29.5±3.7^e μM; in assay [15] it was 15.1±1.53^e μM. The minimal inhibitory concentration (MIC) in [16] and in assay [17] was over 250 µM each time.

Turning to “GIGRFLHSARRFGRAFVGEIMNS-NH2 [Magainin-Arg]”, in [1], the MDC is reported as 42.5±5.7^c μM.

Regarding “GIGXFLHSAXXFGXAFVGEIMNS-CONH2 [Magainin-Orn, magainin II analogue, all lysine residues substituted with ornithine]”, the MDC in assay [1] is given as >200^c μM.

As for `CC[C@H](C)[C@H](NC(=O)CN)C(=O)NCC(=O)N[C@@H](CN)C(=O)N[C@@H](Cc1ccccc1)C(=O)N[C@@H](CC(C)C)C(=O)N[C@@H](Cc1c[nH]cn1)C(=O)N[C@@H](CO)C(=O)N[C@@H](C)C(=O)N[C@@H](CN)C(=O)N[C@@H](CN)C(=O)N[C@@H](Cc1ccccc1)C(=O)NCC(=O)N[C@@H](CN)C(=O)N[C@@H](C)C(=O)N[C@@H](Cc1ccccc1)C(=O)N[C@H](C(=O)NCC(=O)N[C@@H](CCC(=O)O)C(=O)N[C@H](C(=O)N[C@@H](CCSC)C(=O)N[C@@H](CC(N)=O)C(=O)N[C@@H](CO)C(N)=O)[C@@H](C)CC)C(C)C` [Magainin-Dap] (H-GIG[Dap]FLHSA[Dap][Dap]FG[Dap]AFVGEIMNS-NH2; N-terminus assumed), the MDC in assay [1] was >200^c μM.
